Measured values taken from patent US10793568B2, “Hormone receptor modulators for treating metabolic conditions and disorders” (ARDELYX, INC., priority 2016, dated 2020).
Where two headings read alike, the source gives them in different places.

Experiments:
[1] = target: ligand binding domain of human FXR (Homo sapiens (Human), UniProt Q96RI1); test: FXR ligand binding assay (LanthaScreen TR-FRET, SRC2-2 peptide recruitment); conditions: for pEC50: -log EC50, concentration required to produce 50% activation; for Emax: read-out: % Efficacy
ligand binding domain of human FXR, sequence (Q96RI1 262-486): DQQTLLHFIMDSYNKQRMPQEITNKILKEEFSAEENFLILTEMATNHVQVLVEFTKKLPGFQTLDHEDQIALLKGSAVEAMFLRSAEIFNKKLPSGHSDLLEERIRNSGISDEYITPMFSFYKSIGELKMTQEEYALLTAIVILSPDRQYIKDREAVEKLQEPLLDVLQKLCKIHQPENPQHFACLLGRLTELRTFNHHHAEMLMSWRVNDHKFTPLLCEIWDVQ

[2] = target: human Farnesoid X receptor ligand-binding domain/Gal4 DNA binding domain chimera (Homo sapiens (Human), UniProt Q96RI1); test: Cell-based assay of FXR activation (FXR-UAS-bla HEK 293T beta-lactamase reporter); conditions: cellular FXR beta-lactamase reporter assay; for Emax: HEK-293T, extent of activation relative to GW4064, read-out: % Efficacy; for EC50: FXR-UAS-bla HEK 293T cells, 16 h, pEC50 = -log EC50
human Farnesoid X receptor ligand-binding domain/Gal4 DNA binding domain chimera, sequence (Q96RI1 262-486, change not shown): as the sequence (Q96RI1 262-486) above
human Farnesoid X receptor ligand-binding domain/Gal4 DNA binding domain chimera, sequence (P04386 1-147 partner): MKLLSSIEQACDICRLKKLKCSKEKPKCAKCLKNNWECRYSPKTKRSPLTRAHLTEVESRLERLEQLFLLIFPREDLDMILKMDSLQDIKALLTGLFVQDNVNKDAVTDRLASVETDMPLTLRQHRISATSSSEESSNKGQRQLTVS
Outline: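 Readout is cleavage of the CCF4 FRET substrate (409 nm excitation, blue 447 nm signal) by beta-lactamase, expressed under UAS control after a Gal4–human FXR LBD chimera is activated in HEK 293T cells. Compounds were added as 3-fold dilutions for 16 h at 37 °C in 2% charcoal-stripped FBS medium. Curves were fit to a 3-parameter logistic equation to give pEC50, with % activation relative to GW4064.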

[3] = extent of activation relative to GW4064

O=C(O)c1ccc([N+]2([O-])C[C@@H]3C[C@H]2C[C@H]3OCc2c(-c3c(Cl)cccc3Cl)noc2C2CC2)cc1 (stereo partly drawn) [Compound I-127, (1S,4S,5R)-2-(4-carboxyphenyl)-5-{[5-cyclopropyl-3-(2,6-dichlorophenyl)-1,2-oxazol-4-yl]methoxy}-2-azabicyclo[2.2.1]heptan-2-ium-2-olate]
pEC50 [1]: 9.3
Emax [1, 3]: 136%
Emax [2]: 104%
EC50 [2]: 2.51 nM

O=C(O)c1ccc(N2C[C@@H]3C[C@H]2C[C@H]3OCc2c(-c3c(Cl)cccc3Cl)noc2C2CC2)cn1 [Compound I-128, 5-[(1S,4S,5R)-5-{[5-cyclopropyl-3-(2,6-dichlorophenyl)-1,2-oxazol-4-yl]methoxy}-2-azabicyclo[2.2.1]heptan-2-yl]pyridine-2-carboxylic Acid]
pEC50 [1]: 7.8
Emax [1, 3]: 110%
Emax [2]: 93%
EC50 [2]: 10 nM

O=C(O)c1cnc(N2C[C@@H]3C[C@H]2C[C@H]3OCc2c(-c3c(Cl)cccc3Cl)noc2C2CC2)c(F)c1 [Compound I-129, 6-[(1S,4S,5R)-5-{[5-cyclopropyl-3-(2,6-dichlorophenyl)-1,2-oxazol-4-yl]methoxy}-2-azabicyclo[2.2.1]heptan-2-yl]-5-fluoropyridine-3-carboxylic Acid]
Emax [1, 3]: 152%
Emax [2]: 101%
EC50 [2]: 3.98 nM

O=C(O)c1cnc(N2C[C@@H]3C[C@H]2C[C@H]3OCc2c(-c3c(Cl)cccc3Cl)noc2C2(F)CC2)c(F)c1 [Compound I-130, 6-[(1S,4S,5R)-5-{[3-(2,6-dichlorophenyl)-5-(1-fluorocyclopropyl)-1,2-oxazol-4-yl]methoxy}-2-azabicyclo[2.2.1]heptan-2-yl]-5-fluoropyridine-3-carboxylic Acid]
pEC50 [1]: 8
Emax [1, 3]: 152%
Emax [2]: 99%
EC50 [2]: 7.94 nM

O=C(O)c1ccc(N2C[C@H]3C[C@@H]2C[C@@H]3OCc2c(-c3c(Cl)cccc3Cl)noc2C2CC2)c(F)c1 [Compound I-131, 4-[(1R,4R,5S)-5-{[5-cyclopropyl-3-(2,6-dichlorophenyl)-1,2-oxazol-4-yl]methoxy}-2-azabicyclo[2.2.1]heptan-2-yl]-3-fluorobenzoic Acid]
Emax [1]: 108%
Emax [2]: 94%
EC50 [2]: 31.6 nM

O=C(O)c1ccc(N2C[C@H]3C[C@@H]2C[C@@H]3OCc2c(-c3c(Cl)cccc3Cl)noc2C2CC2)cc1 [Compound I-132]
Emax [1, 3]: 98%
EC50 [2]: < 316 nM

N#Cc1c(F)cc(N2C[C@@H]3C[C@H]2C[C@H]3OCc2c(-c3c(Cl)cccc3Cl)noc2C2CC2)cc1F [Compound I-133, 4-[(1S,4S,5R)-5-{[5-cyclopropyl-3-(2,6-dichlorophenyl)-1,2-oxazol-4-yl]methoxy}-2-azabicyclo[2.2.1]heptan-2-yl]-2,6-difluorobenzonitrile]
pEC50 [1]: 7.4
Emax [1, 3]: 79%
Emax [2]: 106%
EC50 [2]: < 39.8 nM

Fc1cc(-c2nn[nH]n2)ccc1N1C[C@@H]2C[C@H]1C[C@H]2OCc1c(-c2c(Cl)cccc2Cl)noc1C1CC1 [Compound I-134, (1S,4S,5R)-5-{[5-cyclopropyl-3-(2,6-dichlorophenyl)-1,2-oxazol-4-yl]methoxy}-2-[2-fluoro-4-(2H-1,2,3,4-tetrazol-5-yl)phenyl]-2-azabicyclo[2.2.1]heptane]
pEC50 [1]: 8.2
Emax [1, 3]: 156%
Emax [2]: 104%
EC50 [2]: 0.794 nM

O=C1NCc2cc(N3C[C@@H]4C[C@H]3C[C@H]4OCc3c(-c4c(Cl)cccc4Cl)noc3C3CC3)ccc21 [Compound I-135, 5-[(1S,4S,5R)-5-{[5-cyclopropyl-3-(2,6-dichlorophenyl)-1,2-oxazol-4-yl]methoxy}-2-azabicyclo[2.2.1]heptan-2-yl]-2,3-dihydro-1H-isoindol-1-one]
pEC50 [1]: 9.4
Emax [1, 3]: 152%
Emax [2]: 102%
EC50 [2]: 1 nM

O=C1NCCc2cc(N3C[C@@H]4C[C@H]3C[C@H]4OCc3c(-c4c(Cl)cccc4Cl)noc3C3CC3)ccc21 [Compound I-136, 6-[(1S,4S,5R)-5-{[5-cyclopropyl-3-(2,6-dichlorophenyl)-1,2-oxazol-4-yl]methoxy}-2-azabicyclo[2.2.1]heptan-2-yl]-1,2,3,4-tetrahydroisoquinolin-1-one]
pEC50 [1]: 9
Emax [1]: 154%
Emax [2]: 114%
EC50 [2]: 3.98 nM

O=c1[nH]c2cc(N3C[C@@H]4C[C@H]3C[C@H]4OCc3c(-c4c(Cl)cccc4Cl)noc3C3CC3)ccc2o1 [Compound I-140, 5-[(1S,4S,5R)-5-{[5-cyclopropyl-3-(2,6-dichlorophenyl)-1,2-oxazol-4-yl]methoxy}-2-azabicyclo[2.2.1]heptan-2-yl]-2,3-dihydro-1,3-benzoxazol-2-one]
pEC50 [1]: 9.1
Emax [1, 3]: 142%
Emax [2]: 121%
EC50 [2]: 20 nM

O=C1OCc2cc(N3C[C@@H]4C[C@H]3C[C@H]4OCc3c(-c4c(Cl)cccc4Cl)noc3C3CC3)ccc21 [Compound I-141, 5-[(1S,4S,5R)-5-{[5-cyclopropyl-3-(2,6-dichlorophenyl)-1,2-oxazol-4-yl]methoxy}-2-azabicyclo[2.2.1]heptan-2-yl]-1,3-dihydro-2-benzofuran-1-one]
pEC50 [1]: 7
Emax [1, 3]: 137%
Emax [2]: 106%
EC50 [2]: 63.1 nM

O=C(c1ccc(N2C[C@@H]3C[C@H]2C[C@H]3OCc2c(-c3c(Cl)cccc3Cl)noc2C2CC2)cc1)C(F)(F)F [Compound I-142, 1-{4-[(1S,4S,5R)-5-{[5-cyclopropyl-3-(2,6-dichlorophenyl)-1,2-oxazol-4-yl]methoxy}-2-azabicyclo[2.2.1]heptan-2-yl]phenyl}-2,2,2-trifluoroethan-1-one]
pEC50 [1]: 7.8
Emax [1, 3]: 78%
Emax [2]: 104%
EC50 [2]: 20 nM

CN(CC(=O)O)S(=O)(=O)c1ccc(N2C[C@@H]3C[C@H]2C[C@H]3OCc2c(-c3c(Cl)cccc3Cl)noc2C2CC2)cc1 [Compound I-143, 2-{N-methyl4-[(1S,4S,5R)-5-{[5-cyclopropyl-3-(2,6-dichlorophenyl)-1,2-oxazol-4-yl]methoxy}-2-azabicyclo[2.2.1]heptan-2-yl]benzenesulfonamido}acetic Acid]
pEC50 [1]: 8
Emax [1, 3]: 132%
Emax [2]: 105%
EC50 [2]: 1 nM

O=S(=O)(O)c1ccc(N2C[C@@H]3C[C@H]2C[C@H]3OCc2c(-c3c(Cl)cccc3Cl)noc2C2CC2)cc1 [Compound I-144, 4-[(1S,4S,5R)-5-{[5-cyclopropyl-3-(2,6-dichlorophenyl)-1,2-oxazol-4-yl]methoxy}-2-azabicyclo[2.2.1]heptan-2-yl]benzene-1-sulfonic Acid]
pEC50 [1]: 8.2
Emax [1, 3]: 128%
EC50 [2]: < 31.6 nM

O=C(O)c1cnc(N2C[C@@H]3C[C@H]2C[C@H]3OCc2c(-c3c(Cl)cccc3Cl)noc2C2CC2)nc1 [Compound I-145, 2-[(1S,4S,5R)-5-{[5-cyclopropyl-3-(2,6-dichlorophenyl)-1,2-oxazol-4-yl]methoxy}-2-azabicyclo[2.2.1]heptan-2-yl]pyrimidine-5-carboxylic Acid]
pEC50 [1]: 8
Emax [1, 3]: 118%
Emax [2]: 108%
EC50 [2]: 63.1 nM

O=C(O)Cc1ccc(N2C[C@@H]3C[C@H]2C[C@H]3OCc2c(-c3c(Cl)cccc3Cl)noc2C2CC2)cc1 [Compound I-146, 2-{4-[(1S,4S,5R)-5-{[5-cyclopropyl-3-(2,6-dichlorophenyl)-1,2-oxazol-4-yl]methoxy}-2-azabicyclo[2.2.1]heptan-2-yl]phenyl}acetic Acid]
pEC50 [1]: 7.9
Emax [1, 3]: 134%
Emax [2]: 101%
EC50 [2]: 7.94 nM

O=C(O)CCc1ccc(N2C[C@@H]3C[C@H]2C[C@H]3OCc2c(-c3c(Cl)cccc3Cl)noc2C2CC2)cc1 [Compound I-147, 3-{4-[(1S,4S,5R)-5-{[5-cyclopropyl-3-(2,6-dichlorophenyl)-1,2-oxazol-4-yl]methoxy}-2-azabicyclo[2.2.1]heptan-2-yl]phenyl}propanoic Acid]
pEC50 [1]: 8.1
Emax [1]: 142%
Emax [2]: 112%
EC50 [2]: 0.631 nM

O=C(O)CCCc1ccc(N2C[C@@H]3C[C@H]2C[C@H]3OCc2c(-c3c(Cl)cccc3Cl)noc2C2CC2)cc1 [Compound I-148, 4-{4-[(1S,4S,5R)-5-{[5-cyclopropyl-3-(2,6-dichlorophenyl)-1,2-oxazol-4-yl]methoxy}-2-azabicyclo[2.2.1]heptan-2-yl]phenyl}butanoic Acid]
pEC50 [1]: 7.8
Emax [1, 3]: 136%
Emax [2]: 117%
EC50 [2]: 20 nM

O=C(O)C1(c2ccc(N3C[C@@H]4C[C@H]3C[C@H]4OCc3c(-c4c(Cl)cccc4Cl)noc3C3CC3)cc2)CC1 [Compound I-149, 1-{4-[(1S,4S,5R)-5-{[5-cyclopropyl-3-(2,6-dichlorophenyl)-1,2-oxazol-4-yl]methoxy}-2-azabicyclo[2.2.1]heptan-2-yl]phenyl}cyclopropane-1-carboxylic Acid]
pEC50 [1]: 8.2
Emax [1, 3]: 106%
Emax [2]: 101%
EC50 [2]: 63.1 nM

O=C(O)C1(c2ccc(N3C[C@@H]4C[C@H]3C[C@H]4OCc3c(-c4c(Cl)cccc4Cl)noc3C3CC3)cc2)CCC1 [Compound I-150, 1-{4-[(1S,4S,5R)-5-{[5-cyclopropyl-3-(2,6-dichlorophenyl)-1,2-oxazol-4-yl]methoxy}-2-azabicyclo[2.2.1]heptan-2-yl]phenyl}cyclobutane-1-carboxylic Acid]
pEC50 [1]: 8.9
Emax [1, 3]: 102%
Emax [2]: 96%
EC50 [2]: 25.1 nM
